Consider one compound from US10799590B2, “Compositions containing a bitter tastant and at least one sophorolipid, and methods of reducing bitter taste attributed to a bitter tastant in an edible composition” (The United States of America, as Represented by the …, priority 2015, dated 2020).

For this assay, the target named is T1, sweet receptor (T1R2+T1R3) (Homo sapiens, UniProt Q7RTX0).
T1 construct: culture human fungiform taste papillae cells retaining their physiological and molecular characteristics; endogenous in cells; host or cells: cultured primary human fungiform taste papillae (HBO) cells
T1 sequence (Q7RTX0 21-852): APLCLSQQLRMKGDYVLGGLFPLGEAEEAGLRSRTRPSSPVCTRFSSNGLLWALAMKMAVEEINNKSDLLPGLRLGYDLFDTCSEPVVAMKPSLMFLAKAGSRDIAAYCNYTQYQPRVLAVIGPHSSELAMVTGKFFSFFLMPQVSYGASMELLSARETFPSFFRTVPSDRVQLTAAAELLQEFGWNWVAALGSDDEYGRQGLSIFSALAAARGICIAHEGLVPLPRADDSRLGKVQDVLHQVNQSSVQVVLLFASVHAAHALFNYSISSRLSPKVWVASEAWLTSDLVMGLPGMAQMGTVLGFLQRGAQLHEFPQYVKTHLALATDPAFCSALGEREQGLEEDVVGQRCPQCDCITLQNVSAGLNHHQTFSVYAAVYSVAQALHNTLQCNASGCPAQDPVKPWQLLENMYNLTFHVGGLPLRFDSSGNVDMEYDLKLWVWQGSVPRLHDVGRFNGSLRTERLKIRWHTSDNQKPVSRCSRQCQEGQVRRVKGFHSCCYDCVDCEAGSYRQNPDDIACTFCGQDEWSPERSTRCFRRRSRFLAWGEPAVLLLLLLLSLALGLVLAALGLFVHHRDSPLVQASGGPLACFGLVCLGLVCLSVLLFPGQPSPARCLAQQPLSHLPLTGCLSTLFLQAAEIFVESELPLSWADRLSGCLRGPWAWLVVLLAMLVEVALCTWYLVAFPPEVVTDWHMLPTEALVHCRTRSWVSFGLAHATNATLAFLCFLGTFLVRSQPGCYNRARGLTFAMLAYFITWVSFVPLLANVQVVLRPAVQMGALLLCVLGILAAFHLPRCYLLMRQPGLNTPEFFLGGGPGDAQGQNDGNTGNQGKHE
T1 sequence (Q8TE23 20-839 partner): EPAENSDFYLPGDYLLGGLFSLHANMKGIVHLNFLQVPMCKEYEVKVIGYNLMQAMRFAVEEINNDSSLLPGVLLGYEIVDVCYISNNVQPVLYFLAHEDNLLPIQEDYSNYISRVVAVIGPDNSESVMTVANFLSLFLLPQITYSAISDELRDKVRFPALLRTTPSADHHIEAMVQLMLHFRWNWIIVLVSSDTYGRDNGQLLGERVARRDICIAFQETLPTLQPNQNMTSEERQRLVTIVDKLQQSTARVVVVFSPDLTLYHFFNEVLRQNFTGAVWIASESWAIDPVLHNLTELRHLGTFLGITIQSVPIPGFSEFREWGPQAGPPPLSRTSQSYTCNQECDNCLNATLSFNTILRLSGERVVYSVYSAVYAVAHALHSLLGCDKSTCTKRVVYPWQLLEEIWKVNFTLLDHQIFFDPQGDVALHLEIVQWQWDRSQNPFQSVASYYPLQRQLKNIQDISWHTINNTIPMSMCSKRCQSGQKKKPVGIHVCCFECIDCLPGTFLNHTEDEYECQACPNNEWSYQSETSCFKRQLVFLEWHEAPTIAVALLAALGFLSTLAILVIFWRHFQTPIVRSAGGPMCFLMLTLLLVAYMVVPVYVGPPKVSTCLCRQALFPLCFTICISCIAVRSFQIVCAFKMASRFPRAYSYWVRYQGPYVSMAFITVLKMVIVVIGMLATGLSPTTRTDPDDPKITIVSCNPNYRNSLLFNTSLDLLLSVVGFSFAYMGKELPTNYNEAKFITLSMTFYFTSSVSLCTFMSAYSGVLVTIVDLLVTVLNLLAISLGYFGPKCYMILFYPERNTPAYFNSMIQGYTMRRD
The assay can be described thus: Lactisole sensitivity of sophorolipid-induced calcium responses in cultured HBO cells. The format is cell-based. As to conditions: lactisole = T1R3 blocker; C16-SL-responsive cells n=29 (FIG. 4). The source says: In vitro cell-based assay of sweet property. Establishment and maintenance of cultures of human fungiform taste papillae cells (HBO cells): We previously established the current proprietary protocol (Ozdener, H., et al., Chem. Senses, 31(3): 279-90 (2006); Ozdener, M. H., et al., Chem. Senses, 36(7): 601-12 (2011); Ozdener, H., et al., Isolation and culture of human fungiform taste papillae cells, J. Vis. Exp., 2012 May 17;(63):e3730) which allowed us to culture human fungiform taste papillae cells retaining their physiological and molecular characteristics for more than a year.
The human fungiform taste papillae cells were cultured according to protocols that we have published (Ozdener et al. 2006, Ozdener et al. 2011). […]
Calcium imaging: Cultured taste cells grown for 3-4 days glass coverslips which were loaded for 30-60 min with the calcium sensitive dye fura-2 by incubating the cells in Ringer solution (145 mM NaCl, 5 mM KCl, 1 mM MgCl2, 1 mM CaCl2, 1 mM Na-pyruvate, 20 mM Hepes-Na and Cellobiose 15 mM, pH 7.2 with osmolarity adjusted to 300-310 by 5M NaCl) supplemented with […] (Molecular Probes Inc., Eugene, Oreg.) and 10 mg/ml Pluronic® F127 (Molecular Probes Inc.). […] Stimuli were dissolved in Ringer and then pH and osmolarity readjusted if needed. […]

Each structure is given as a SMILES string.

For `OC[C@H]1O[C@@H](O[C@@H]2[C@@H](O)[C@H](O)[C@@H](CO)O[C@H]2O)[C@H](O)[C@@H](O)[C@@H]1O` [Sophorose, 2-O-β-D-glucopyranosyl-β-D glucopyranose], the “effect of lactisole on induced Ca responses, lactisole-sensitive HBO cells” value is given as “lactisole sensitive”.
